Assay results as given in article PMC5696560 (Bioorganic & Medicinal Chemistry Letters, 2017).

Molecular target: hERG channel (Homo sapiens, UniProt Q12809)
Test: Inhibition of the hERG channel
Type: biochemical
Settings: for IC50: studies conducted by Wuxi AppTec

hERG channel, sequence (Q12809 whole entry): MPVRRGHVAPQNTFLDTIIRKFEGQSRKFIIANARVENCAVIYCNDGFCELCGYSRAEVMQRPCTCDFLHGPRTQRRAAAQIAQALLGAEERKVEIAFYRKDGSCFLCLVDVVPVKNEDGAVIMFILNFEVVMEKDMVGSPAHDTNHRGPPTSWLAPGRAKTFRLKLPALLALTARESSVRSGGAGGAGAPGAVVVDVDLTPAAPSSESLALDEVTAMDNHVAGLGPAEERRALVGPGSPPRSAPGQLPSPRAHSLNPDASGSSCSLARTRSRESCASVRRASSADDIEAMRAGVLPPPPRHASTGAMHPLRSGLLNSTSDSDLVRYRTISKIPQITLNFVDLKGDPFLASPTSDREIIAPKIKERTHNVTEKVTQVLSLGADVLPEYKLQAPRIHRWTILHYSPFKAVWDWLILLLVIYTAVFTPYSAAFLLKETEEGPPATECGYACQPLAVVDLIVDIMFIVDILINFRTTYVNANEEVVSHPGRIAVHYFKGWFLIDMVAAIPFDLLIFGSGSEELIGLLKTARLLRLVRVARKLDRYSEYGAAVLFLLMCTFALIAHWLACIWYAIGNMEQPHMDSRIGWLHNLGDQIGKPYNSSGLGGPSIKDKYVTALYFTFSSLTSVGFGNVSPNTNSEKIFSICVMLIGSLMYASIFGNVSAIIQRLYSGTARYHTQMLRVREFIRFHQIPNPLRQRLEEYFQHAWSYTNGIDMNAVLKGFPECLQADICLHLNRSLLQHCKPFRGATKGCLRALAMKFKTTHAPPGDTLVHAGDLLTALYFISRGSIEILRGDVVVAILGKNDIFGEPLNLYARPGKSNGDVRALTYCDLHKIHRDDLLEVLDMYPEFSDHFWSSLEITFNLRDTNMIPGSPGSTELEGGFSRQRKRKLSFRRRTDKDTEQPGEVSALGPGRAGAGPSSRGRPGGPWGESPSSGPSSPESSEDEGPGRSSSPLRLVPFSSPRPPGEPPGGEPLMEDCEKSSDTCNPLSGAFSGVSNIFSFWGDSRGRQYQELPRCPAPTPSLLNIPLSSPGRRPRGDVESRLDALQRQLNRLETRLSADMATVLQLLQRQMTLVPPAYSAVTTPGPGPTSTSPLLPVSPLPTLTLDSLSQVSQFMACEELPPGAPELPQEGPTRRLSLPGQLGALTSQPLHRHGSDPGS

Structure (SMILES) | IC50 [nM] | improvement in hERG IC50 relative to 1 (versus compound 1) [fold]
COc1nc2ccc(Br)cc2cc1[C@@H](c1cc(C)c(C)s1)[C@@](O)(CCN(C)C)c1cccc(F)c1 [Compound 9] | 880 | –
COc1cc([C@H](c2cc3cc(Br)ccc3nc2OC)[C@@](O)(CCN(C)C)c2cccc(F)c2)cnc1OC [Compound 43] | 1900 | 5
COc1nc2ccc(Br)cc2cc1[C@@H](c1ccnc(OC)c1OC)[C@@](O)(CCN(C)C)c1cccc(C)c1 [Compound 45] | 530 | –
